# Reference: US4211772A, “Benzopyran glycoside acetals and ketals” (Laboratoires Sarget, priority 1977, dated 1980)
# Like-named read-outs stand apart in the source and are kept apart here.
# Columns and labels:
# Solubilities in water = type: physicochemical; settings: water
# carragenin edema = assay: Anti-inflammatory activity: carragenin edema test; type: in vivo; settings: Rattus norvegicus, ip, substantially alkaline pH solution, read-out: % inhibition of carragenin edema; for inhibition in vivo at 100 mg/kg: 100 mg/kg i.p.; for inhibition in vivo at 200 mg/kg: 200 mg/kg i.p.; for inhibition in vivo at 300 mg/kg: 300 mg/kg i.p.
# Procedure, shortened: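 Male Wistar EOPS rats receive 0.1 ml of 5% carragenin suspension in physiological serum into the hind-paw metatarsal muscle, with test substance given i.p. in neutralized solution at the same time. Paw edema is measured by plethysmometry at several times after carragenin and reported as % inhibition against pH-matched physiological serum controls.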
# capillary permeability = assay: Capillaroprotecting effects: capillary permeability; type: in vivo, conventional male Wistar rats
# Procedure: Capillaroprotecting effects
# The capillary permeability was determined by the method of Charlier et al, Arch. Inter. Physiol.
# [1] = i.p. toxicity in Swiss EOPS mice, mortality at 14 days; settings: mouse, in vivo, ip, DMSO solution at 1/2, read-out: percentages of mortality at the end of 14 days
# Procedure: The i.p. toxicities of certain compounds of the present invention were determined using male and female Swiss EOPS mice for administrations in DMSO solution at 1/2 under a volume of P/100.
# Aldose Reductase [2] = target: T1, Aldose Reductase (Bos taurus, UniProt P16116); assay: Inhibition of aldose reductase in vitro (enzyme from beef eye lenses, glyceraldehyde substrate); type: biochemical; settings: 5.10^-6 mole/l, in DMF solution
# T1 construct: The enzyme is extracted from beef eye lenses; from tissue; host or cells: beef eye lenses
# Source text: Inhibition of Aldose Reductase In Vitro
# The reoxidation of NADPH coupled to the enzymatic reaction was followed spectrophotometrically at 340 nm.
# COMT = target: T2, COMT (Rattus norvegicus, UniProt P22734); assay: Inhibition of COMT in vitro (enzyme from rat liver, 4-nitrocatechol substrate); type: biochemical; settings: in dimethylsulfoxide solution, read-out: percentages of inhibition (COMT)
# T2 construct: The enzyme is extracted from rat liver; from tissue; host or cells: rat liver
# T2 sequence (P22734 1-221 isoform P22734-2): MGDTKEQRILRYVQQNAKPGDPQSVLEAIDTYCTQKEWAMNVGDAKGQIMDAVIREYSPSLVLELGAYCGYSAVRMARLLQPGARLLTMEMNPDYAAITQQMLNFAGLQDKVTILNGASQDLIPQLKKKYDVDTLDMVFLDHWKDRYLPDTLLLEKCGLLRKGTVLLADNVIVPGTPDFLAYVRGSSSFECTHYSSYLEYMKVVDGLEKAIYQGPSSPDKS
# Procedure: Inhibition of COMT in vitro The enzyme is extracted from rat liver by the method described by Axelrod et al, J. Biol. Chem., 233, 702(1958); its activity is measured in the presence of S-adenosyl methionine and using as substrate 4-nitrocatechol by the method described by Lee et al, J. Pharm. Sci., 66(7), 986(1977). The quantity of 4-nitrocatechol consumed was determined spectrophotometrically at 520 nm in alkaline medium.
# aldose reductase [3] = settings: prior art statement; cited from earlier work
structure (smiles),measurement,setting,value
"COc1ccc(C2CC(=O)c3c(O)cc(O[C@@H]4O[C@H](CO[C@@H]5O[C@@H](C)[C@H](O)[C@H]6OC(C)(C)O[C@@H]56)[C@@H](O)[C@H](O)[C@H]4O)cc3O2)cc1O (stereo partly drawn) [No. 18, 7-O-(2,3-O,O-isopropylidene-6-α-L-rhamnosyl-β-D-glucosyl)hesperitin]",solubility,Solubilities in water; read-out: Solubilities in water,900 µg/mL
same,inhibition in vivo at 100 mg/kg,carragenin edema; 1/2 h,0%
same,inhibition in vivo at 200 mg/kg,carragenin edema; 1/2 h,0%
same,inhibition in vivo at 300 mg/kg,carragenin edema; 1/2 h,0%
same,inhibition in vivo at 100 mg/kg,"carragenin edema; 1 h, 1 h 1/2",17%
same,inhibition in vivo at 100 mg/kg,"carragenin edema; 1 h, 1 h",0%
same,inhibition in vivo at 200 mg/kg,"carragenin edema; 1 h, 1 h 1/2",39%
same,inhibition in vivo at 200 mg/kg,"carragenin edema; 1 h, 1 h",18%
same,inhibition in vivo at 300 mg/kg,"carragenin edema; 1 h, 1 h 1/2",27%
same,inhibition in vivo at 300 mg/kg,"carragenin edema; 1 h, 1 h",0%
same,inhibition in vivo at 100 mg/kg,"carragenin edema; 2 h, 2 h",16%
same,inhibition in vivo at 200 mg/kg,"carragenin edema; 2 h, 2 h",42%
same,inhibition in vivo at 300 mg/kg,"carragenin edema; 2 h, 2 h",27%
same,inhibition in vivo at 100 mg/kg,"carragenin edema; 3 h, 3 h",13%
same,inhibition in vivo at 200 mg/kg,"carragenin edema; 3 h, 3 h",46%
same,inhibition in vivo at 300 mg/kg,"carragenin edema; 3 h, 3 h",21%
same,inhibition in vivo at 100 mg/kg,"carragenin edema; 4 h, 4 h",20%
same,inhibition in vivo at 200 mg/kg,"carragenin edema; 4 h, 4 h",52%
same,inhibition in vivo at 300 mg/kg,"carragenin edema; 4 h, 4 h",26%
same,inhibition in vivo at 100 mg/kg,"carragenin edema; 5 h, 5 h",21%
same,inhibition in vivo at 200 mg/kg,"carragenin edema; 5 h, 5 h",50%
same,inhibition in vivo at 300 mg/kg,"carragenin edema; 5 h, 5 h",16%
same,inhibition in vivo at 100 mg/kg,"carragenin edema; 6 h, 6 h",27%
same,inhibition in vivo at 200 mg/kg,"carragenin edema; 6 h, 6 h",55%
same,inhibition in vivo at 300 mg/kg,"carragenin edema; 6 h, 6 h",16%
same,percentage reduction of capillary permeability,capillary permeability; 10 mg/kg i.p.,24%
same,percentage reduction of capillary permeability,capillary permeability; 50 mg/kg i.p.,21%
same,percentage reduction of capillary permeability,capillary permeability; 75 mg/kg i.p.,8%
same,mortality at 336 h,[1]; 1000 mg/kg i.p.,0%
same,mortality at 336 h,[1]; 2000 mg/kg i.p.,0%
"C[C@@H]1O[C@@H](OC[C@H]2O[C@@H](Oc3c(-c4ccc(O)c(O)c4)oc4cc(O)cc(O)c4c3=O)[C@H](O)[C@@H](O)[C@@H]2O)[C@H](O)[C@H](O)[C@H]1O [Rutin, rutin, reference compound]",solubility,Solubilities in water,120 µg/mL
same,percentages of inhibition (aldose reductase),Aldose Reductase [2],0%
same,inhibition at 1000 µM,COMT; 10^-3 mole/l,63 to 68%
same,inhibition at 10 µM,COMT; 10^-5 mole/l,13%
same,inhibition of aldose reductase in vitro (in words),aldose reductase [3],inhibits aldose reductase in vitro
C[C@@H]1O[C@@H](OC[C@H]2O[C@@H](Oc3c(-c4ccc(O)c(O)c4)oc4cc(OCCO)cc(O)c4c3=O)[C@H](O)[C@@H](O)[C@@H]2O)[C@H](O)[C@H](O)[C@H]1O [7-O-hydroxyethyl rutin],inhibition of aldose reductase in vitro (in words),aldose reductase [3],practically inactive
"C[C@@H]1O[C@@H](OC[C@H]2O[C@@H](Oc3c(-c4ccc(OCCO)c(OCCO)c4)oc4cc(OCCO)cc(O)c4c3=O)[C@H](O)[C@@H](O)[C@@H]2O)[C@H](O)[C@H](O)[C@H]1O [7, 3', 4'-tri-O-hydroxyethyl rutin]",inhibition of aldose reductase in vitro (in words),aldose reductase [3],practically inactive
"C[C@@H]1O[C@@H](OC[C@H]2O[C@@H](Oc3c(-c4ccc(OCCO)c(OCCO)c4)oc4cc(OCCO)cc(OCCO)c4c3=O)[C@H](O)[C@@H](O)[C@@H]2O)[C@H](O)[C@H](O)[C@H]1O [5,7, 3', 4'-tetra-O-hydroxyethyl rutin]",inhibition of aldose reductase in vitro (in words),aldose reductase [3],practically inactive
